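Each compound was tested at five concentrations against cells in 96-well plates for 48 hours. The concentration for full growth arrest is given as TGI.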
Legend:
Experiment in all cases: DTP human tumour cell line panel, 48 h
K-562 leukemia = test system: K-562 leukemia
M19-MEL melanoma = test system: M19-MEL melanoma
A549 NSCLC = test system: A549 NSCLC
HOP-18 NSCLC = test system: HOP-18 NSCLC
DMS 114 small cell lung = test system: DMS 114 small cell lung
SNB-75 CNS = test system: SNB-75 CNS
HL-60(TB) leukemia = test system: HL-60(TB) leukemia
SF-295 CNS = test system: SF-295 CNS
M14 melanoma = test system: M14 melanoma
LXFL 529 NSCLC = test system: LXFL 529 NSCLC
UACC-62 melanoma = test system: UACC-62 melanoma
HCT-116 colon = test system: HCT-116 colon
RXF 393 renal = test system: RXF 393 renal
CAKI-1 renal = test system: CAKI-1 renal
CCRF-CEM leukemia = test system: CCRF-CEM leukemia
COLO 205 colon = test system: COLO 205 colon
IGROV1 ovarian = test system: IGROV1 ovarian
TK-10 renal = test system: TK-10 renal
ACHN renal = test system: ACHN renal
KM12 colon = test system: KM12 colon
MALME-3M melanoma = test system: MALME-3M melanoma
U251 CNS = test system: U251 CNS
SK-MEL-2 melanoma = test system: SK-MEL-2 melanoma
KM20L2 colon = test system: KM20L2 colon
UACC-257 melanoma = test system: UACC-257 melanoma
NCI-H522 lung = test system: NCI-H522 lung
SK-MEL-28 melanoma = test system: SK-MEL-28 melanoma
SNB-78 CNS = test system: SNB-78 CNS
UO-31 renal = test system: UO-31 renal
EKVX NSCLC = test system: EKVX NSCLC
SN12C renal = test system: SN12C renal
SW-620 colon = test system: SW-620 colon
786-0 renal = test system: 786-0 renal
NCI-H23 lung = test system: NCI-H23 lung
LOX IMVI melanoma = test system: LOX IMVI melanoma
SF-268 CNS = test system: SF-268 CNS
HOP-92 NSCLC = test system: HOP-92 NSCLC
HCT-15 colon = test system: HCT-15 colon
OVCAR-3 ovarian = test system: OVCAR-3 ovarian
DLD-1 colon = test system: DLD-1 colon
SNB-19 CNS = test system: SNB-19 CNS
MOLT-4 leukemia = test system: MOLT-4 leukemia
HT29 colon = test system: HT29 colon
OVCAR-5 ovarian = test system: OVCAR-5 ovarian
HOP-62 NSCLC = test system: HOP-62 NSCLC
SK-OV-3 ovarian = test system: SK-OV-3 ovarian
OVCAR-8 ovarian = test system: OVCAR-8 ovarian
SK-MEL-5 melanoma = test system: SK-MEL-5 melanoma
SR leukemia = test system: SR leukemia
RPMI-8226 leukemia = test system: RPMI-8226 leukemia
OVCAR-4 ovarian = test system: OVCAR-4 ovarian
NCI-H460 lung = test system: NCI-H460 lung
HCC-2998 colon = test system: HCC-2998 colon
SF-539 CNS = test system: SF-539 CNS
NCI-H226 lung = test system: NCI-H226 lung

Measured: TGI

O=c1[nH]cnc2c(COCCCO)c[nH]c12
not listed: OVCAR-4 ovarian | NCI-H460 lung | HCC-2998 colon | SF-539 CNS | NCI-H226 lung
> 100 µM: all other assays above

COc1cc2cccc(N=Cc3ccccc3Cl)c2cc1OC
> 100 µM: all assays above

Reference: PubChem BioAssay (NCI)
